ChEMBL document CHEMBL5120764, “Isarubrolone C Promotes Autophagic Degradation of Virus Proteins via Activating ATG10S in HepG2 Cells” (J Nat Prod, 2022)
Calls of active or inactive are those of the source.

Assays:
Type in all cases: functional, cell-based
[1] = system: HepG2; experiment: Induction of autophagy in human HepG2 cells transfected with HCV subgenomic replicon assessed as HCV-CORE/ATG10/ATG10S combination at 10 uM incubated for 24 hrs in presence of anti-LAMP2 antibodies by co-immunoprecipitation assay
[2] = system: HepG2; experiment: Downregulation of HCV-CORE in human HepG2 cells co-transfected with HCV-subreplicon and ATG10-misMO upto 10 uM incubated for 24 hrs by western blot analysis
[3] = system: HepG2; experiment: Induction of autophagy in human HepG2 cells assessed as decrease in P62 expression level upto 10 uM and measured after 6 hrs by western blot analysis; details: DDE = dose-dependent effect
[4] = system: HepG2; experiment: Upregulation of endogenous ATG10S activated co-localisation of HIV-RT with LAMP2 in human HepG2 cells co-transfected with HIV-RT and ATG10-misMO by cellular immunofluorescence assay
[5] = system: HepG2; experiment: Induction of autophagy in human HepG2 cells transfected with HCV subgenomic replicon assessed as HCV-NS5B/ATG10/ATG10S combination at 10 uM incubated for 24 hrs in presence of anti-LAMP2 antibodies by co-immunoprecipitation assay
[6] = system: HepG2; experiment: Upregulation of P62 in human HepG2 cells transfected with HIV-RT and gene knockdown by IL28A morpholinos at 10 uM incubated for 24 hrs by western blot analysis
[7] = system: HepG2; experiment: Induction of autophagy in human HepG2 cells transfected with HCV subgenomic replicon assessed as HCV-NS5B/P62 combination at 10 uM incubated for 24 hrs in presence of anti-LC3B antibodies by co-immunoprecipitation assay
[8] = system: HepG2; experiment: Upregulation of IL28A mRNA expression level in human HepG2 cells transfected with HBV-X upto 10 uM by qRT-PCR analysis; details: DDE = dose-dependent effect
[9] = system: HepG2; experiment: Upregulation of HCV-CORE in human HepG2 cells transfected with HCV sub-replicon and gene knockdown by IL28A morpholinos at 10 uM incubated for 24 hrs by western blot analysis
[10] = system: HepG2; experiment: Induction of autophagy in human HepG2 cells transfected with HCV subgenomic replicon assessed as HCV-NS5B/P62 combination at 10 uM incubated for 24 hrs in presence of anti-LAMP2 antibodies by co-immunoprecipitation assay
[11] = system: HepG2; experiment: Upregulation of endogenous ATG10S activated co-localisation of HBx with LC3B in human HepG2 cells co-transfected with HBx and ATG10-misMO by cellular immunofluorescence assay
[12] = system: HepG2; experiment: Upregulation of endogenous ATG10S activated co-localisation of ZIKV-NS5 with LAMP2 in human HepG2 cells co-transfected with ZIKV-NS5 and ATG10-sMO by cellular immunofluorescence assay
[13] = system: HepG2; experiment: Induction of autophagy in human HepG2 cells transfected with HCV subgenomic replicon and gene knockdown by IL28A morpholinos assessed as LC3B and LAMP2 interaction at 10 uM incubated for 24 hrs in presence of anti-LC3B antibodies by co-immunoprecipitation assay
[14] = system: HepG2; experiment: Induction of autophagy in human HepG2 cells transfected with HBx assessed as increase in HBx-P62 interaction level at 10 uM incubated for 24 hrs in presence of anti-Flag antibodies by co-immunoprecipitation assay
[15] = system: HepG2; experiment: Upregulation of IL28A mRNA expression level in human HepG2 cells transfected with HIV-RT upto 10 uM by qRT-PCR analysis; details: DDE = dose-dependent effect
[16] = system: HepG2; experiment: Downregulation of ZIKV-NS5 in human HepG2 cells co-transfected with ZIKV-NS5 and ATG10-misMO upto 10 uM incubated for 24 hrs by western blot analysis
[17] = system: HepG2; experiment: Downregulation of HBVx in human HepG2 cells co-transfected with HBVx and ATG10-misMO upto 10 uM incubated for 24 hrs by western blot analysis
[18] = system: HepG2; experiment: Upregulation of P62 in human HepG2 cells transfected with HBx and gene knockdown by IL28A morpholinos at 10 uM incubated for 24 hrs by western blot analysis
[19] = system: HepG2; experiment: Upregulation of LC3B in human HepG2 cells transfected with HCV sub-replicon and gene knockdown by IL28A morpholinos at 10 uM incubated for 24 hrs by western blot analysis
[20] = system: HepG2; experiment: Downregulation of HIV-RT in human HepG2 cells co-transfected with HIV-RT and ATG10-misMO upto 10 uM incubated for 24 hrs by western blot analysis
[21] = system: HepG2; experiment: Upregulation of IL28A mRNA expression level in human HepG2 cells transfected with ZIKV-NS5 upto 10 uM by qRT-PCR analysis; details: DDE = dose-dependent effect
[22] = system: HepG2; experiment: Effect on ZIKV-NS5 degradation in human HepG2 cells transfected with ZIKV-NS5 at 10 uM pretreated with proteosome inhibitor MG132 for 12 hrs followed by compound addition and measured after 24 hrs by western blot analysis

Measured: Activity

CC[C@@H](O)c1nc(C)cc2c1C(=O)c1cc(=O)c3c(c(O)c1-2)O[C@@H]1O[C@H](C)[C@@H](OC)[C@@H](O)[C@]31O
active: [1] | [2] | [3] Dde | [4] | [5] | [6] | [7] | [8] Dde | [9] | [10] | [11] | [12] | [13] | [14] | [15] Dde | [16] | [17] | [18] | [19] | [20] | [21] Dde | [22]
